Reference: US20100029702A1, “Method For Identification of Compound Having Anti-Anxiety Effect” (priority 2006, published 2010)

How the values were obtained:
7tmHR = molecular target: T1, 7tmHR (Homo sapiens, UniProt O60241); assay: Changes in intracellular Ca2+ concentration in 7tmHR stably-expressing strain; type: cell-based
T1 construct: a vector expressing each full-length cDNA clone was constructed; expressed in transfected cells; host or cells: CHO-K1, 7tmHR/pcDNA3.1
Description: (§1) The 7tmHR stably-expressing strain and the hk01941 stably-expressing strain were prepared by transfecting the 7tmHR-expressing vector (7tmHR/pcDNA3.1) and the hk01941-expressing vector (hk01941/pcDNA3.1), respectively, into a CHO-K1 cell strain. Specifically, the expression vector was mixed with Lipofectamine 2000, (may be referred to as LF2000, Invitrogen) (4 μg DNA/250 μL of DMEM/F12 medium+10 μL of LF2000/250 μL DMEM/F12 medium) and added the CHO-K1 strain (2 mL medium/well) cultured in a 6-well plate to be transfected thereinto. On the following day, cells were recovered and seeded in a 96-well plate at cell density of 1 cell/well, cultured in a selective medium containing G418 (400 μg/mL) (DMEM/F 12 medium containing 10% FCS), and screened for expression cell strains. […]
(§2) Changes in the intracellular calcium (Ca^2+) concentration induced by CCK-8S were measured by a method similar to the method described in Example 5 using the 7tmHR stably-expressing strain and the hk01941 stably-expressing strain prepared in Example 7. […]
(§3) Cells were seeded in a 96-well plate (a plate with a black wall and a transparent bottom) at a cell count of 3×10^4/100 μL of medium/well and cultured overnight at 37° C. in a 5% CO2 incubator. […] After reaction, changes over time in the fluorescence intensity in each well after addition of CCK-8S were measured using the FLEX station (Molecular Device). […]

hk01941 = molecular target: T2, hk01941 (Homo sapiens, UniProt O60241, DEL308-417); assay: Changes in intracellular Ca2+ concentration in hk01941 stably-expressing strain; type: cell-based
T2 construct: a vector expressing each full-length cDNA clone was constructed; expressed in transfected cells; host or cells: CHO-K1, hk01941/pcDNA3.1
T2 sequence (O60241 with tags, fused parts or gaps DEL308-417): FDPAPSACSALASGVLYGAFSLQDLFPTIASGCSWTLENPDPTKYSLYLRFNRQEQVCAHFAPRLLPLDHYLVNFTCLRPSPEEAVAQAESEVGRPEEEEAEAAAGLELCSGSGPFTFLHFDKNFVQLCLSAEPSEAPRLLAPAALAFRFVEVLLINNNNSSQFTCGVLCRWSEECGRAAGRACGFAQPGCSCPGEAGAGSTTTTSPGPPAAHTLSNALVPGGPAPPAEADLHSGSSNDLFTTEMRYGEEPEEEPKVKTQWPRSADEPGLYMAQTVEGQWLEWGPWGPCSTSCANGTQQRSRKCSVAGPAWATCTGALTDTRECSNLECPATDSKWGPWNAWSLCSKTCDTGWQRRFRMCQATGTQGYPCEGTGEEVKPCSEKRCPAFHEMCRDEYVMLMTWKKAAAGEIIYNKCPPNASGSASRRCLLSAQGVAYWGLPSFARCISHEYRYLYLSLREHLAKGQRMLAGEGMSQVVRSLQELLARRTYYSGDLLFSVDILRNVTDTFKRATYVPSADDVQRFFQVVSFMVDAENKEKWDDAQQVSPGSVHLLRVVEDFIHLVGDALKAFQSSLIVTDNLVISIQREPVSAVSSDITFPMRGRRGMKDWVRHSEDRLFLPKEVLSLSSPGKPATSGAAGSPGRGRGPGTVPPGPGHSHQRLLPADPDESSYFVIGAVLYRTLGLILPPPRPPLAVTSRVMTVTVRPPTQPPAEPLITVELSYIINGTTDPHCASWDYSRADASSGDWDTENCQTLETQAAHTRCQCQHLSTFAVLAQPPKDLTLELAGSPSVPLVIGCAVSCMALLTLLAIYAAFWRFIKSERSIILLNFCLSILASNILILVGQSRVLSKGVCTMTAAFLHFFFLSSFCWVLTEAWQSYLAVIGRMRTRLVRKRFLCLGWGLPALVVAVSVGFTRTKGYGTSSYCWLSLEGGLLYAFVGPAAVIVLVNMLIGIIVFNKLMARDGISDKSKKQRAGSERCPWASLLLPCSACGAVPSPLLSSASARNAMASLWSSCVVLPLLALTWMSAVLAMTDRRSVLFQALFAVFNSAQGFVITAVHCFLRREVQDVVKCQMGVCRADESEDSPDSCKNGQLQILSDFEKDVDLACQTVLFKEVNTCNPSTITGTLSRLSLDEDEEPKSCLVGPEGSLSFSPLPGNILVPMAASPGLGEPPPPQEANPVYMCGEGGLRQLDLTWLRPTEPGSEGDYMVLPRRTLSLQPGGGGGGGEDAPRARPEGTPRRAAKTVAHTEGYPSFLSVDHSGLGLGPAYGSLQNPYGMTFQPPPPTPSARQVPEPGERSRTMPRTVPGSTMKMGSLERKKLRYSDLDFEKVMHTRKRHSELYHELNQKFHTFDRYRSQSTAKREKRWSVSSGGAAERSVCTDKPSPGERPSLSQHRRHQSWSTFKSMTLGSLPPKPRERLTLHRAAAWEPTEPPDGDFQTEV
Description: as §1, §2, §3

T1 sequence (O60241 13-1585): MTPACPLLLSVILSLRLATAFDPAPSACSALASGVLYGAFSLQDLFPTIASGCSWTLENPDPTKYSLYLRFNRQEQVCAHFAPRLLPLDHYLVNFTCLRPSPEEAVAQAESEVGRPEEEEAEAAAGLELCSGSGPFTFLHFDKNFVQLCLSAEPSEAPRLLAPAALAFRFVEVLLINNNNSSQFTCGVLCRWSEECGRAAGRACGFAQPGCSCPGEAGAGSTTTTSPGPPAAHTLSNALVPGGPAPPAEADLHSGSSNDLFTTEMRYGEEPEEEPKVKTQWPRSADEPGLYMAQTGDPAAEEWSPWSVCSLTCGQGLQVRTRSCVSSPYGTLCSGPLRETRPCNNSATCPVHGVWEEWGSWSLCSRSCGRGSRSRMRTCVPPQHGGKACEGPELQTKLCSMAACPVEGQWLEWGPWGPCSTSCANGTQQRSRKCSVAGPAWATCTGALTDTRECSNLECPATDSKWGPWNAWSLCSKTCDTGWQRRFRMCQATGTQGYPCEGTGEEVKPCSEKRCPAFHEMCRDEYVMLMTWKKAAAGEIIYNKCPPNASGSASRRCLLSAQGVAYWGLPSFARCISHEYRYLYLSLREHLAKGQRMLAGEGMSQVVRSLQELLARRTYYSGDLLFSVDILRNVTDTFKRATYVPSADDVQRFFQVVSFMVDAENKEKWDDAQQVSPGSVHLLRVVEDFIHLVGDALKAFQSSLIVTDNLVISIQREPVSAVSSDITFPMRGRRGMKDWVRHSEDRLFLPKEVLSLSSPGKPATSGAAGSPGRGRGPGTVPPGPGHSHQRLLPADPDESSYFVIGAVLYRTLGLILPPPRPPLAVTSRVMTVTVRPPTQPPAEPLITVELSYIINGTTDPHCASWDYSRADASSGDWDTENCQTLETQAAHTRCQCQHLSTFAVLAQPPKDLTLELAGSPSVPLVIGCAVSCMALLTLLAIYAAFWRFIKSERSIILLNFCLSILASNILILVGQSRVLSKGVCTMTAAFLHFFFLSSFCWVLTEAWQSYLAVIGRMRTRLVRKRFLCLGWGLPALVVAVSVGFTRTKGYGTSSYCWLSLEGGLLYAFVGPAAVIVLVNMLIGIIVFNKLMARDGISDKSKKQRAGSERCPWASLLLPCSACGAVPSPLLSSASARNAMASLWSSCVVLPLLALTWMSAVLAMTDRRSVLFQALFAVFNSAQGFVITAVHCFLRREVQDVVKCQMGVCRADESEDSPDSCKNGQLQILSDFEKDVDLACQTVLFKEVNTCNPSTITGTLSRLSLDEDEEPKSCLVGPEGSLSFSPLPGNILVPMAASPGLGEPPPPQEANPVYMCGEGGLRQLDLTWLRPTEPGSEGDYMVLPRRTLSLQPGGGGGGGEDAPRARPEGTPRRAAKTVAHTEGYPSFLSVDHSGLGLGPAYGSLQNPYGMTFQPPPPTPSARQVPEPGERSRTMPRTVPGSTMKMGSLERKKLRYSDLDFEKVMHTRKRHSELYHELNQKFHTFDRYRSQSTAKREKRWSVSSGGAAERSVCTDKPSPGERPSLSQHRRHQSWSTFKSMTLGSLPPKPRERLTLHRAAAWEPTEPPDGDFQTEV

| Change in intracellular Ca2+ concentration after addition of CCK-8S (7tmHR; 7tmHR stably-expressing strain, CCK-8S 10 pM to 1 μM, figure at 1 nM) | Change in intracellular Ca2+ concentration after addition of CCK-8S (hk01941; hk01941 stably-expressing strain, CCK-8S 10 pM to 1 μM, figure at 1 nM) | Molecule | Change in intracellular Ca2+ concentration (fluorescence intensity) (7tmHR; 7tmHR/CHO#6, A23187 20 μM, positive control) | Change in intracellular Ca2+ concentration (fluorescence intensity) (hk01941; hk01941/CHO#13, A23187 20 μM, positive control) |
| --- | --- | --- | --- | --- |
| – | – | CNc1ccc2oc(C[C@H]3O[C@@]4(CC[C@H]3C)O[C@H]([C@H](C)C(=O)c3ccc[nH]3)[C@H](C)C[C@H]4C)nc2c1C(=O)O [A23187] | increased | increased |
| increase | increase | cholecystokinin octapeptide sulfated form [CCK-8S] | – | – |
